Read-outs that look alike come from different tables or passages of the source.
What was measured:
[1] = target: T1, mitochondrial pyruvate carrier (MPC) (Mus musculus, UniProt P63030+Q9D023); experiment: Seahorse XFe96 Pyr-driven respiration in rPFO-permeabilized 4T1 cells; assay type: cell-based, murine; settings: for effect on Pyr-driven respiration: Pyr/Mal, candidate compounds 1 μM
T1 construct: host or cells: 4T1 murine breast cancer cells, rPFO-permeabilized
T1 sequence (P63030 1-109): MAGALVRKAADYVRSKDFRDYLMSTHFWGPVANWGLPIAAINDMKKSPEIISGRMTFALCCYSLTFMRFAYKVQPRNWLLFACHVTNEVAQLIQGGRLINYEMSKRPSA
T1 sequence (Q9D023 1-127): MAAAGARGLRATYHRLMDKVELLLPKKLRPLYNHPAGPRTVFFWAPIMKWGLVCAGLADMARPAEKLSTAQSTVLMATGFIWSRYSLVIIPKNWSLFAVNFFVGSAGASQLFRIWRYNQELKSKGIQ
Procedure: After validating the ability of rPFO to permeabilize 4T1 cells without damaging mitochondria, we sought to investigate the ability of candidate compounds to inhibit Pyr-driven respiration in these cells (Fig. 1, D–G). In this regard, 4T1 cells were seeded in Seahorse XFe96 well plates and were incubated to reach confluence (∼18–24 h) in growth media (+serum). Growth media were then aspirated, and cells were washed with MAS buffer to remove serum and endogenous metabolic substrates. Serum- and substrate-starved cells were then incubated for equilibration in MAS buffer in a non-CO2 incubator. Inhibitors, rPFO, and substrate milieus were prepared in MAS buffer to be injected in succession to allow for real-time observation of the effects of compound-treated cultures on oxygen consumption rates (OCRs) when compared with vehicle (dimethyl sulfoxide [DMSO])-treated cells. Equilibrated intact cells were allowed to establish basal respiratory rates, followed by the injection of candidate compounds C1 to C4 at varying dose-titrated concentrations, respectively, and acute decreases in OCR were observed (Fig. 1, D–G). Compound exposure was performed in intact cells to avoid influence of rPFO on acute cellular targets. Cells were then exposed to rPFO, followed by the carbonyl cyanide-p-trifluoromethoxyphenylhydrazone (FCCP)–stimulated Pyr substrate milieu, which consisted of Pyr, malate (Mal), and dichloroacetate (DCA) to fuel uninhibited Pyr respiratory flux and maximal respiration. Mal and DCA were included to allow for continuous TCA cycle function without acetyl CoA feedback–mediated inhibition (Mal) or Pyr dehydrogenase–regulated inhibition (DCA) of Pyr uptake. Here, we observed a dose-dependent inhibition of Pyr-driven respiration in cells treated with the candidate compounds, allowing for logarithmic dose–response curves to be generated, and 50% inhibitory concentrations (IC50) to be calculated (Fig. 1, D–G). Finally, complex I and […] were injected to halt respiration and end the assay. […] In this regard, the fluoro-aminocarboxycoumarin derivative C4 has been designated as the lead candidate for further investigation.
(§1) Permeabilized cell assays were performed using rPFO as described previously. 4T1 cells were seeded (20,000 cells/well) onto Seahorse XFe96 well plates and incubated overnight in growth media at 37 °C and 5% CO2 for adherence. On the day of the assay, growth media were aspirated and replaced with MAS buffer (70 mM sucrose, 220 mM mannitol, 10 mM potassium phosphate monobasic, 5 mM magnesium chloride, 2 mM Hepes, and 1 mM EGTA) after 3X rinse of growth media to remove serum and endogenous metabolic substrates, and incubated at 37 °C in a non-CO2 incubator. Respective inhibitor and substrate milieu's were prepared in MAS buffer for port injections A–D at 8X, 9X, 10X, and 11X the target cell concentrations to account for intrinsic dilution factor of in situ injections of each port. […] Final substrate concentrations for specific tests were as follows: (5 mM Pyr , 0.5 mM Mal, 2 mM DCA; 10 mM glutamate, 0.5 mM Mal, 2 mM DCA; 10 mM succinate, 2 μM rotenone; 20 mM methyl Pyr, 5 mM Pyr, 0.5 mM Mal, and 2 mM DCA). ATP rate assays and mitochondrial stress tests were performed according to the manufacturer's (Agilent) instructions.

[2] = target: T1, mitochondrial pyruvate carrier (MPC); experiment: Michaelis-Menten kinetics of mitochondrial pyruvate uptake (Seahorse OCR); assay type: cell-based, murine; settings: permeabilized 4T1 cells; 10 nM inhibitor
Procedure: To further investigate the type of inhibition, we employed Michaelis–Menten experiments in modified Seahorse XFe96–based assays similar to described previously, and based on the model that Pyr uptake is directly coupled to NADH oxidation and oxygen consumption (Fig. 3A). In these experiments, 4T1 cells were permeabilized and were then administered varying concentrations of Pyr in the presence or the absence of 10 nM C3 or C4, respectively (Fig. 3, B–F). A rise in OCR indicated Pyr-driven respiration, where subsequent addition of FCCP stimulated maximal respiration, and substrate-dependent increases in OCR were observed and normalized to protein content (Fig. 3, B–F). In this regard, Michaelis–Menten curves were generated using the FCCP-stimulated OCR in C3- or C4-treated and -untreated cells where Michaelis–Menten parameters of maximal velocity (Vmax) and half-maximal substrate concentrations (Km) were calculated (Fig. 3, E–G). Michaelis–Menten assumptions include direct and irreversible substrate and carrier interaction that results in the OCRs and is analogous to standard enzymatic Michaelis–Menten models (Fig. 3A). […] Thus, C3 decreased the Vmax and increased the Km, not consistent with competitive inhibition where high substrate concentrations titrate out the inhibitor to reach intrinsic Vmax values. However, potential covalent bonding of inhibitor may limit the ability of Pyr to displace C3 from the active site, resulting in the observed “mixed” mode of inhibition.

[3] = system: succinate-driven respiration in 4T1 cells; experiment: Seahorse succinate-driven respiration in permeabilized 4T1 cells; assay type: cell-based, murine; settings: candidate compounds 1 μM
From the text: (§2) Although our initial experiments and previous literature illustrate the ability of the candidate compounds to inhibit Pyr-driven respiration, we sought to investigate the ability of candidate compounds to inhibit respiration fueled by other metabolic substrates, glutamate and succinate (Fig. 2). Glutamate, similar to Pyr oxidation, results in NADH equivalents that fuel complex I-mediated respiration, and succinate metabolism offers FADH2 for electrons in complex II-driven respiratory processes. […] To further validate the mode of action of the candidate compounds, a series of similar Seahorse experiments were employed (Fig. 2, A–C). In these experiments, 4T1 cells were first permeabilized and were then offered metabolic substrates Pyr (Pyr/Mal; Fig. 2A), glutamate (Glu/Mal, Fig. 2B), or succinate (Fig. 2C), and the resulting OCR was observed. As described previously, Mal and DCA were included in the substrate milieu of glutamate respiration experiments. […] To validate that inhibition of Pyr respiration is due to mitochondrial Pyr uptake and not other Pyr-processing enzymes (i.e., Pyr dehydrogenase), a parallel experiment using methyl pyruvate (MePyr) was employed (Fig. 2, E and F). MePyr is permeable to the mitochondrial membranes, where in the matrix, mitochondrial esterase hydrolysis activity provides Pyr.
as §1

[4] = system: glutamate-driven respiration in 4T1 cells; experiment: Seahorse glutamate-driven respiration in permeabilized 4T1 cells; assay type: cell-based, murine; settings: Glu/Mal, candidate compounds 1 μM
From the text: as §2, §1

[5] = Intrinsic CL in human liver microsomes; assay type: in vitro ADME; settings: human, liver microsomes; exceeding the experimental endpoints
[6] = target: T1, mitochondrial pyruvate carrier (MPC); experiment: Methyl pyruvate reversal of inhibited Pyr-driven respiration; assay type: cell-based, murine; settings: permeabilized 4T1 cells; 20 mM methyl Pyr
From the text: as §2
Permeabilized cell assays were performed using rPFO as described previously. […]

[7] = average ± SEM, read-out: IC50, inhibition of Pyr-driven respiration (Fig. 1G, unit inferred)
[8] = read-out: IC50, inhibition of Pyr-driven respiration

| SMILES | effect on Pyr-driven respiration [1] | IC50 [1, 7] [µM] | IC50 [1, 8] [µM] | mode of inhibition [2] | effect on succinate-driven respiration [3] | effect on glutamate-driven respiration [4] | Vmax of Pyr-driven FCCP-stimulated OCR [2] [pmol/min] | half-life [5] [h] | reversal of Pyr-driven respiration effects by methyl pyruvate [6] |
| --- | --- | --- | --- | --- | --- | --- | --- | --- | --- |
| CN(Cc1ccc(F)cc1)c1ccc2cc(C(=O)O)c(=O)oc2c1 [C4, 7-((4-fluorobenzyl)(methyl)amino)-2-oxo-2H-chromene-3-carboxylic acid] | specifically inhibits | 0.0166 ± 0.0048 | 0.016 | competitive | without substantial effects | without substantial effects |  |  |  |
| O=C(O)c1cc2ccc(N(c3ccc(F)cc3)c3ccc(F)cc3)cc2oc1=O [C1, 7-(bis(4-fluorophenyl)amino)-2-oxo-2H-chromene-3-carboxylic acid] |  |  | > 1 |  |  |  |  |  |  |
| CN(Cc1ccccc1)c1ccc2cc(C(=O)O)c(=O)oc2c1 [C3, 7-(benzyl(methyl)amino)-2-oxo-2H-chromene-3-carboxylic acid] | specifically inhibits | 0.0183 ± 0.0008 | 0.018 | mixed | without substantial effects | without substantial effects | 10.8 | > 2 | completely reversed |
| CN(c1ccc(F)cc1)c1ccc2cc(C(=O)O)c(=O)oc2c1 [C2, 7-((4-fluorophenyl)(methyl)amino)-2-oxo-2H-chromene-3-carboxylic acid] | specifically inhibits | 0.148 ± 0.0089 | 0.147 |  | without substantial effects | without substantial effects |  |  |  |

From article PMC12355554, “Development of novel mitochondrial pyruvate carrier inhibitors for breast cancer treatment” (The Journal of Biological Chemistry, 2025)
